Results: PubChem BioAssay (NCI)
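Five compound concentrations were applied to cells in 96-well plates for 48 hours; endpoints were derived by simple linear interpolation of the resulting dose-response curve. At the TGI there is no net growth.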

Tested on: RXF-631 renal
Experiment: NCI tumour cell line growth inhibition, 48 h

CN1CCN(c2cc(-c3cc4ccccc4o3)oc(=O)c2C#N)CC1
TGI: > 100 µM
